{"source": "paper PMC5537347", "about": "“A short D-enantiomeric antimicrobial peptide with potent immunomodulatory and antibiofilm activity against multidrug-resistant Pseudomonas aeruginosa and Acinetobacter baumannii” (Scientific Reports, 2017)", "key": {"[1]": {"system": "C. elegans strain glp-4;sek 1", "test": "Toxicity of peptides in uninfected C. elegans", "format": "in vivo, Caenorhabditis elegans", "conditions": "worms grown four days with peptide; D-RR4 and colistin at 8 × MIC", "experimental": "To test the efficacy of the synthetic peptides to protect against infections in vivo, we utilized a C. elegans model of bacterial infection. This model has been used extensively for early-stage evaluation of promising antimicrobials, [35], [36]. Initially, the lethal dose of D-RR4 against uninfected nematodes was determined.\n(A) Evaluation of toxicity of peptides in Caenorhabditis elegans. C. elegans strain glp-4;sek 1 was grown for four days in the presence of peptides at different concentrations. Worms were monitored daily and the live worms were counted. Results are expressed as a Kaplan-Meier survival curve. (B) Evaluation of antimicrobial activity of peptides to reduce the bacterial CFU inside infected Caenorhabditis elegans. C. elegans strain glp-4; sek 1 were infected with P. aeruginosa PAO1, colistin-resistant P. aeruginosa 1109, or A. baumannii ATCC BAA-1605. […] After treatment, worms were lysed and bacteria were counted. One asterisk (*) indicates significant difference with the negative control. Two asterisks (**) indicates significant difference with the monotherapy treatment (P < 0.05). Results are expressed as means from three biological replicates ± standard deviation. (C) Efficacy of peptides in a Caenorhabditis elegans model of bacterial infection. […] Worms were monitored daily and the live worms were counted. Results are expressed as a Kaplan-Meier survival curve. C. elegans receiving no treatment served as a negative control."}, "[2]": {"system": "P. aeruginosa and A. baumannii isolates", "text": "(§1) The broth microdilution technique was utilized to assess the MIC of designed peptides according to the guidelines of the Clinical and Laboratory Standards Institute (CLSI)[37]."}, "[3]": {"system": "colistin-resistant P. aeruginosa isolated from cystic fibrosis patients", "text": "as §1"}, "A. baumannii": {"system": "A. baumannii", "format": "cell-based"}}, "note": "Where two headings read alike, the source gives them in different places.", "data": [{"substance": "Colistin [reference compound]", "values": [{"measurement": "toxicity to uninfected worms", "setting": "[1]", "result": "not toxic"}, {"measurement": "MIC50", "setting": "[2]; MIC that inhibited growth of 50% of all isolates (Table 2)", "result": 0.25, "unit": "µM"}, {"measurement": "MIC90", "setting": "[2]; MIC that inhibited growth of 90% of all isolates (Table 2)", "result": 0.5, "unit": "µM"}, {"measurement": "MIC", "setting": "[3]; strain 1125", "result": 32, "unit": "µM"}, {"measurement": "MIC", "setting": "[3]; strain 1131", "result": 64, "unit": "µM"}, {"measurement": "MIC", "setting": "[3]; strain 1133", "result": 32, "unit": "µM"}, {"measurement": "MIC", "setting": "[3]; strain 1603", "result": 64, "unit": "µM"}, {"measurement": "MIC", "setting": "A. baumannii; strain ATCC 19606", "result": 0.125, "unit": "µM"}, {"measurement": "MIC", "setting": "A. baumannii; strain ATCC BAA-747", "result": 0.25, "unit": "µM"}, {"measurement": "MIC", "setting": "A. baumannii; strain ATCC BAA-1605", "result": 0.25, "unit": "µM"}, {"measurement": "MIC", "setting": "A. baumannii; strain NR-9667", "result": 0.0625, "unit": "µM"}, {"measurement": "MIC", "setting": "A. baumannii; strain NR-13374", "result": 0.125, "unit": "µM"}, {"measurement": "MIC", "setting": "A. baumannii; strain NR-13375", "result": 0.125, "unit": "µM"}, {"measurement": "MIC", "setting": "A. baumannii; strain NR-13382", "result": 0.5, "unit": "µM"}, {"measurement": "MIC", "setting": "A. baumannii; strain NR-17777", "result": 0.5, "unit": "µM"}, {"measurement": "MIC", "setting": "A. baumannii; strain NR-17778", "result": 0.0625, "unit": "µM"}, {"measurement": "MIC", "setting": "A. baumannii; strain NR-17780", "result": 0.25, "unit": "µM"}, {"measurement": "MIC", "setting": "A. baumannii; strain NR-17783", "result": 0.0625, "unit": "µM"}, {"measurement": "MIC", "setting": "A. baumannii; strain NR-17784", "result": 0.0625, "unit": "µM"}, {"measurement": "MIC", "setting": "A. baumannii; strain NR-17785", "result": 0.25, "unit": "µM"}, {"measurement": "MIC", "setting": "A. baumannii; strain NR-17786", "result": 0.0625, "unit": "µM"}, {"measurement": "MIC", "setting": "A. baumannii; strain NR-19298", "result": 0.25, "unit": "µM"}, {"measurement": "MIC", "setting": "A. baumannii; strain NR-19299", "result": 0.25, "unit": "µM"}]}]}
